For orientation: EC50 means the midpoint of the concentration-response curve.

Molecules are shown by their SMILES. Some results are limits rather than exact numbers.

The experiment has as its system TGF-b induced Endothelin-1 production. In words: ET-1 assay: inhibitory effect on TGF-b induced endothelin-1 production. As to conditions: Homo sapiens, Fibroblast; fibroblasts, stimulant (TGFb, serum, LPA etc), ET-1 in media by ELISA, 4-parameter fit. The experiment is classed as cell-based. The method, then:
Assay of Inhibitory Effect on TGF-b Induced Endothelin-1 Production
Fibroblasts (primary human lung and dermal, HFL-1, 3T3 etc) are seeded in 96-well plates at ˜15000 cells/well and serum starved for 0-48 hours. After media exchange, compounds serially diluted in DMSO are added to the cells. After a brief incubation of ˜30 min, stimulants (TGFb, serum, LPA etc) are added followed by further incubation for 16-48 hours. Media is then harvested and stored frozen in plate format for later endothelin-1 (ET-1) determination by ELISA. Toxicity measurements are made using the ATPlite kit (Perkin-Elmer). ET-1 is quantified using an ELISA kit (R&D Systems). The amount of ET-1 produced in the assay wells are back-calculated using the ELISA standard. The ability of a compound to inhibit ET-1 production is typically analyzed by fitting dose-response curves to a 4-parameter logistic function to obtain an EC50 value. A measure of cytotoxicity (CC50) is likewise reported from the same experiment using the ATPlite data.
Compounds of some embodiments were prepared according to synthetic methods described herein and assay data obtained for EC50 against ET-1. The assay data obtained is presented in Table 2, in which A=less than 50 μM, B=greater than or equal to 50 μM and less than or equal to 200 μM; and C=greater than 200 μM.
For orientation: In an ELISA, binding on a coated surface is turned into a signal by an enzyme label.
Regarding `CC(=O)c1ccc(=O)n(-c2cccc(C(F)(F)F)c2)c1` [Compound 11], the EC50 was greater than 200 µM.

Turning to `CC(=O)c1ccc(=O)n(-c2ccc(Cl)cc2)c1` [Compound 12], the EC50 is greater than 200 µM.

As to `COc1cccc(-n2cc(C(C)=O)ccc2=O)c1` [Compound 14], the EC50 was greater than 200 µM.

With `CC(=O)c1ccc(=O)n(-c2cccc(F)c2)c1` [Compound 15], the EC50 was greater than 200 µM.

Take `CC(=O)Nc1cccc(-n2cc(C(C)=O)ccc2=O)c1` [Compound 18]: the EC50 is greater than 200 µM.

`CC(=O)c1ccc(=O)n(-c2ccccc2Cl)c1` [Compound 19] returned an EC50 of 50 to 200 µM.

For the molecule `COCCOc1ccc(-n2cc(-c3ccc(F)cc3)c(C)cc2=O)cc1` [Compound 23], the EC50 lay within 50 to 200 µM.

Molecule `COCCOc1ccc(-n2cc(-c3cn[nH]c3)c(C)cc2=O)cc1` [Compound 24] showed an EC50 greater than 200 µM.

Regarding `COCCOc1ccc(-n2cc(-c3cnn(C)c3)c(C)cc2=O)cc1` [Compound 25], the EC50 was greater than 200 µM.

Molecule `COCCOc1ccc(-n2cc(-c3ccccc3)c(C)cc2=O)cc1` [Compound 26] registered an EC50 of less than 50 µM.

For the molecule `O=c1ccc2c(n1-c1ccccc1)CCC2` [Compound 27], the EC50 was greater than 200 µM.

Molecule `O=c1c2c(c(-c3ccc(F)cc3)cn1-c1ccc(OC(F)(F)F)cc1)CCCC2` [Compound 32] had a 50% effective concentration (EC50) greater than 200 µM.

Take `Cn1cc(-c2cn(-c3ccc(OC(F)(F)F)cc3)c(=O)c3c2CCCC3)cn1` [Compound 33]: the 50% effective concentration (EC50) is less than 50 µM.

On to `O=c1c2c(c(-c3cccc(F)c3)cn1-c1ccc(OC(F)(F)F)cc1)CCCC2` [Compound 34], for which the EC50 is less than 50 µM.

`CCOc1ccc(-n2cc(-c3cnn(C)c3)c3c(c2=O)CCCC3)c(C)c1` [Compound 35] returned an EC50 of less than 50 µM.

For `CCOc1ccc(-n2cc(-c3cn[nH]c3)c3c(c2=O)CCCC3)c(C)c1` [Compound 36], the EC50 was less than 50 µM.

`O=c1c2c(c(-c3cn[nH]c3)cn1-c1ccc(OC(F)(F)F)cc1)CCCC2` [Compound 37] yielded an EC50 of 50 to 200 µM.

Molecule `O=c1c2ccc(C(F)(F)F)nc2c(-c2ccc(F)cc2)cn1-c1ccc(OC(F)(F)F)cc1` [Compound 38] returned an EC50 greater than 200 µM.

In turn, `Cn1cc(-c2cn(-c3ccc(OC(F)(F)F)cc3)c(=O)c3ccc(C(F)(F)F)nc23)cn1` [Compound 39] returned an EC50 of less than 50 µM.

As for `O=c1c2nsnc2c(-c2ccc(F)cc2)cn1-c1ccc(OC(F)(F)F)cc1` [Compound 40], the EC50 is greater than 200 µM.

The molecule `O=c1c2cccnc2c(-c2ccc(F)cc2)cn1-c1ccc(OC(F)(F)F)cc1` [Compound 42] yielded a 50% effective concentration (EC50) greater than 200 µM.

For the molecule `Cn1cc(-c2cn(-c3ccc(OC(F)(F)F)cc3)c(=O)c3c2NCCC3)cn1` [Compound 44], the EC50 was greater than 200 µM.

Molecule `O=c1c2c(c(-c3ccc(F)cc3)cn1-c1ccc(OC(F)(F)F)cc1)NCCC2` [Compound 45] displayed an EC50 greater than 200 µM.

On to `O=c1c2ncn(Cc3ccccc3)c2c(-c2ccc(F)cc2)cn1-c1ccc(OC(F)(F)F)cc1` [Compound 54], for which the EC50 was greater than 200 µM.

`Cn1cc(-c2cn(-c3ccc(OC(F)(F)F)cc3)c(=O)c3ncn(Cc4ccccc4)c23)cn1` [Compound 55] yielded an EC50 greater than 200 µM.

Turning to `O=c1c2nc[nH]c2c(-c2ccc(F)cc2)cn1-c1ccc(OC(F)(F)F)cc1` [Compound 56], the EC50 is greater than 200 µM.

`Cn1cc(-c2cn(-c3ccc(OC(F)(F)F)cc3)c(=O)c3nc[nH]c23)cn1` [Compound 57] showed an EC50 greater than 200 µM.

In the case of `CCOc1ccc(-n2cc(-c3ccc(F)cc3)c3nccnc3c2=O)c(C)c1` [Compound 62], the EC50 is greater than 200 µM.

In turn, `O=c1ccc(C2CCCC2)cn1-c1ccccc1` [Compound 64] came in with an EC50 of 50 to 200 µM.

The molecule `O=c1ccc(C2CCC2)cn1-c1ccccc1` [Compound 65] displayed a half-maximal effective concentration (EC50) greater than 200 µM.

Take `O=c1ccc(C2CCCCC2)cn1-c1ccccc1` [Compound 66]: the EC50 was in the range of 50 to 200 µM.

The molecule `CC(=O)n1cc(-c2ccc(=O)n(-c3ccccc3)c2)cn1` [Compound 67] gave an EC50 greater than 200 µM.

In the case of `CCCCOC(=O)n1cc(-c2ccc(=O)n(-c3ccccc3)c2)cn1` [Compound 74], the EC50 fell in the range of 50 to 200 µM.

Consider `O=c1ccc(-c2ccc(F)cc2)cn1CCc1ccccc1` [Compound 77], for which the EC50 was in the range of 50 to 200 µM.

`Cc1ccc(=O)n(Cc2ccccc2)c1` [Compound 78] yielded an EC50 greater than 200 µM.

The molecule `O=c1ccc(-c2ccc(F)cc2)cn1Cc1ccccc1` [Compound 79] showed an EC50 of less than 50 µM.

The molecule `O=C1Cc2ccccc2N1c1ccc(OC(F)(F)F)cc1` [Compound 81] gave an EC50 of 50 to 200 µM.

With `Cc1ccc2c(c1)CC(=O)N2c1ccc(OC(F)(F)F)cc1` [Compound 82], the EC50 was greater than 200 µM.

Molecule `C[C@H]1CCC(=O)N(c2ccccc2)C1` [Compound 83] had an EC50 greater than 200 µM.

`C[C@@H]1CCC(=O)N(c2ccccc2)C1` [Compound 84] returned an EC50 greater than 200 µM.

`COc1cc(=O)n(-c2ccc(OC(F)(F)F)cc2)cc1-c1ccc(F)cc1` [Compound 85] displayed an EC50 greater than 200 µM.

Molecule `Nc1cc(=O)n(-c2ccc(OC(F)(F)F)cc2)cc1-c1ccc(F)cc1` [Compound 88] displayed an EC50 of 50 to 200 µM.

For `O=c1cc(NCc2ccccc2)c(-c2ccc(F)cc2)cn1-c1ccc(OC(F)(F)F)cc1` [Compound 89], the concentration for a half-maximal effect (EC50) is greater than 200 µM.

`CNc1cc(=O)n(-c2ccc(OC(F)(F)F)cc2)cc1-c1ccc(F)cc1` [Compound 90] yielded a concentration giving a half-maximal response (EC50) greater than 200 µM.

On to `O=c1cc(OCc2ccccc2)c(-c2ccc(F)cc2)cn1-c1ccc(OC(F)(F)F)cc1` [Compound 91], for which the EC50 is greater than 200 µM.

`O=c1cc(OCCN2CCOCC2)c(-c2ccc(F)cc2)cn1-c1ccc(OC(F)(F)F)cc1` [Compound 92]: the EC50 lay in the range of 50 to 200 µM.

In the case of `O=c1cc(OCCN2CCCC2)c(-c2ccc(F)cc2)cn1-c1ccc(OC(F)(F)F)cc1` [Compound 93], the EC50 is less than 50 µM.

For `O=c1cc(OCCN2CCS(=O)(=O)CC2)c(-c2ccc(F)cc2)cn1-c1ccc(OC(F)(F)F)cc1` [Compound 94], the EC50 is greater than 200 µM.

As for `CN1CCC(Oc2cc(=O)n(-c3ccc(OC(F)(F)F)cc3)cc2-c2ccc(F)cc2)CC1` [Compound 95], the 50% effective concentration (EC50) was less than 50 µM.

`COCCOc1cc(=O)n(-c2ccc(OC(F)(F)F)cc2)cc1-c1ccc(F)cc1` [Compound 96]: the EC50 is greater than 200 µM.

Molecule `O=C1CCCN1CCOc1cc(=O)n(-c2ccc(OC(F)(F)F)cc2)cc1-c1ccc(F)cc1` [Compound 97] registered an EC50 greater than 200 µM.

As to `O=C1COCCN1CCOc1cc(=O)n(-c2ccc(OC(F)(F)F)cc2)cc1-c1ccc(F)cc1` [Compound 98], the EC50 fell in the range of 50 to 200 µM.

`O=c1cc(OC2CCS(=O)(=O)CC2)c(-c2ccc(F)cc2)cn1-c1ccc(OC(F)(F)F)cc1` [Compound 99] showed a half-maximal effective concentration (EC50) of less than 50 µM.

In the case of `CN1CCN(CCOc2cc(=O)n(-c3ccc(OC(F)(F)F)cc3)cc2-c2ccc(F)cc2)CC1` [Compound 100], the concentration giving a half-maximal response (EC50) is less than 50 µM.

For `O=c1cc(Oc2ccccc2)c(-c2ccc(F)cc2)cn1-c1ccc(OC(F)(F)F)cc1` [Compound 102], the EC50 is greater than 200 µM.

Take `O=C(Nc1cc(=O)n(-c2ccc(OC(F)(F)F)cc2)cc1-c1ccc(F)cc1)OCc1ccccc1` [Compound 103]: the EC50 is greater than 200 µM.

Turning to `CC(=O)Nc1cc(=O)n(-c2ccc(OC(F)(F)F)cc2)cc1-c1ccc(F)cc1` [Compound 104], the EC50 is greater than 200 µM.

As for `CCCOC(=O)Nc1cc(=O)n(-c2ccc(OC(F)(F)F)cc2)cc1-c1ccc(F)cc1` [Compound 105], the EC50 is greater than 200 µM.

`CCC(=O)Nc1cc(=O)n(-c2ccc(OC(F)(F)F)cc2)cc1-c1ccc(F)cc1` [Compound 106] returned an EC50 greater than 200 µM.

The molecule `CCCCC(=O)Nc1cc(=O)n(-c2ccc(OC(F)(F)F)cc2)cc1-c1ccc(F)cc1` [Compound 107] yielded an EC50 greater than 200 µM.

Molecule `CC(C)C(=O)Nc1cc(=O)n(-c2ccc(OC(F)(F)F)cc2)cc1-c1ccc(F)cc1` [Compound 108] returned an EC50 greater than 200 µM.

With `CCCC(=O)Nc1cc(=O)n(-c2ccc(OC(F)(F)F)cc2)cc1-c1ccc(F)cc1` [Compound 110], the EC50 is greater than 200 µM.

`COC(=O)Nc1cc(=O)n(-c2ccc(OC(F)(F)F)cc2)cc1-c1ccc(F)cc1` [Compound 111] returned an EC50 greater than 200 µM.

`CC(C)OC(=O)Nc1cc(=O)n(-c2ccc(OC(F)(F)F)cc2)cc1-c1ccc(F)cc1` [Compound 112] registered an EC50 greater than 200 µM.

`O=C(Nc1cc(=O)n(-c2ccc(OC(F)(F)F)cc2)cc1-c1ccc(F)cc1)Oc1ccccc1` [Compound 113] returned an EC50 greater than 200 µM.

Turning to `CCCNC(=O)Nc1cc(=O)n(-c2ccc(OC(F)(F)F)cc2)cc1-c1ccc(F)cc1` [Compound 115], the EC50 is greater than 200 µM.

`O=C(NCc1ccccc1)Nc1cc(=O)n(-c2ccc(OC(F)(F)F)cc2)cc1-c1ccc(F)cc1` [Compound 116] showed a concentration for a half-maximal effect (EC50) greater than 200 µM.

`O=C(NCc1ccccc1)c1cc(=O)n(-c2ccc(OC(F)(F)F)cc2)cc1-c1ccc(F)cc1` [Compound 118]: the EC50 was greater than 200 µM.

`Cn1cc(-c2cn(-c3ccc(OC(F)(F)F)cc3)c(=O)cc2O)cn1` [Compound 121] had an EC50 greater than 200 µM.

As to `Cn1cc(-c2cn(-c3ccc(OC(F)(F)F)cc3)c(=O)cc2Cl)cn1` [Compound 122], the EC50 was greater than 200 µM.

`Cn1cc(-c2cn(-c3ccc(OC(F)(F)F)cc3)c(=O)cc2N)cn1` [Compound 124] showed an EC50 greater than 200 µM.

The values are drawn from patent US10233195B2, “Anti-fibrotic pyridinones” (InterMune, Inc., priority 2014, dated 2019).
